# Measured values reported in patent US20200087340A1, “LIF/LIFR ANTAGONIST IN ONCOLOGY AND NONMALIGNANT DISEASES” (Evestra, Inc., priority 2018, published 2020).
# Experiments:
# [1] = test system: T47D cells; test: Soft agar colony formation assay; format: cell-based, human; conditions: 100 nM concentration
# Method: Colonies of cancer cells formed in soft agar in the presence and absence of the testing compounds is a standard assay to interpret in-vitro tumorigenic potential in the basal layer. Agar was prepared by mixing 1% DNA grade agar melted and cooled to 40° C. with an equal volume of (2×) Dulbecco's Modified Eagle's Medium (DMEM) to obtain 0.5% agar that was dispersed in a 6-well plate and allowed to solidify. A total of 0.6% agar was prepared in RPMI medium and mixed together with T47D cells (0.5×10^6 cells/mL) and immediately plated on the basal layer in the presence or absence of testing compounds. The cultures were incubated at 37° C. in a CO2 incubator for 2 weeks, and colonies were stained with 0.005% crystal violet and observed under a light microscope.
# [2] = test system: UACC-62; test: NCI-60 screening, Melanoma; format: cell-based, human
smiles,measurement,setting,value
"C#CC(F)(F)[C@]1(O)CCC2C3CCC4=CC(=O)CCC4=C3C(c3ccc(C4CC4)cc3)C[C@@]21C (stereo partly drawn) [EC330, 17α-(1,1-difluoro-2-propyn-1-yl)-17β-hydroxy-11β-[4-p-(cyclopropyl)phenyl]estra-4,9-dien-3-one]",colonies formed,[1],complete inhibition or no colonies were formed
same,TGI (log10TGI),[2],−5.27
